Data as given in patent US20160038392A1, “COMPOSITIONS COMPRISING PAULOWNIN AND/OR PAULOWNIA EXTRACTS AND USES THEREOF” (Johnson & Johnson Consumer Inc., priority 2010, published 2016).
Converted amounts (≈) assume the structure as drawn.

Assays:
[1] = system: NF-κB promoter activity in H9c2 cells; test: NF-κB Inhibition Assay (NF-κB promoter luciferase, TNFα stimulated); format: cell-based; details: Rattus norvegicus
Procedure: The NF-κB promoter assay is conducted as follows: rat cardiac myoblasts H9c2 cells were purchased from ATCC (Manassas, Va.). Cultures were maintained in Dulbecco's modified Eagle's medium (DMEM, Invitrogen Life Technologies, Carlsbad, Calif.) supplemented with 10% fetal bovine serum, 100 units/ml penicillin, and 50 μg/ml streptomycin (Invitrogen life technologies, Carlsbad, Calif.). Typically, 1×10^4 cells grown in 96-well plates were transiently transfected with 0.45 μg total DNA per well using Lipofectamine 2000 (Invitrogen life technologies, Carlsbad, Calif.). In all transfections, a construct with the thymidine kinase promoter and the Renilla luciferase reporter gene (pRL-TK, Promega, Madison, Wis.) was included as an internal control in addition to the luciferase promoter. One day after transfection, cells were treated with the extracts at indicated concentrations and stimulated with 100 ng/mL of Tumor Necrosis Factor-a (TNFα, Sigma-Aldrich, St Louis, Mo.) for approximately 24 hours before they were lysed for luciferase assays, using Dual-Luciferase Reporter System from Promega (Madison, Wis.), following manufacturer's protocol. Briefly, the firefly luciferase activity was measured first (representing NF-κB promoter activity), followed by the renilla luciferase (internal control), using luminometer LMAX, from Molecular Devices (Sunnyvale, Calif.). […]

[2] = system: MatTek's MelanoDerm skin epidermal equivalent tissues (MEL-300-B; NHEK and NHM); test: Skin Epidermal Equivalents Model as a Skin Lightening Test (ΔL); format: cell-based, human; details: topical daily 8 days, measured day 9
From the text: Skin epidermal equivalent tissues are available commercially from MatTek's MelanoDerm™ System and were used for the following tests. MatTek's MelanoDerm™ System consists of normal, human-derived epidermal keratinocytes (NHEK) and melanocytes (NHM) which have been cultured to form a multilayered, highly differentiated model of the human epidermis. Specifically, MEL-300-B tissues, each 9 mm in diameter were used in the following tests.
The test materials prepared in an appropriate vehicle and tested concentrations were applied topically to the skin model daily and the experiment lasted for 8 days. Measurement was taken on day 9.
The macroscopic and microscopic visual tissue darkening end points were measured by taking pictures with a digital camera. The Degree of Lightness for each tissue (L-Value) was measured using a spectrophotometer (Konica Minolta CM-2600d). The ΔL (degree of lightness as compared to control) for each test sample is calculated as per following formula:
ΔL=L-value of treated sample−L-value of control sample.

[3] = system: skin epidermal tissues (MelanoDerm); test: Cell Viability Test (MTT) on skin epidermal tissues; format: cell-based, human; details: at tested concentrations; ≧30% reduction of cell viability = significant
Procedure: Cell Viability of the tissue during experiment was evaluated using the MTT assay described as follows. The MTT Tissue Viability Assay is a colorimetric assay system that measures the reduction of a yellow Methylthiazolyldiphenyl-tetrazolium bromide (MTT) into an insoluble purple product by the mitochondria of viable cells. The skin epidermal tissues used previously to determine degree of lightness for each test material and of untreated tissues were used to determine percent viable cells remaining at the end of the experiment. The skin epidermal tissues after degree of lightness test were incubated with MTT reagent for 3 h. After incubation extraction buffer is added to lyse the cells and allowed to continue overnight. Samples are read using a plate reader at a wavelength of 570 nm and compared against untreated control and expressed in % Cell Viability as of control. A reduction of ≧30% cell viability as of control consider as a significant indication of cell cytotoxicity caused by the test materials. The amount of purple color produced is directly proportional to the number of viable cells.
Cytotoxicity potential was determined by MTT assay for all extracts and calculated as % reduction of cell viability as compared to control, wherein >30% reduction of cell viability constitute significant cytotoxicity issues.

IC50 [1]: 148 µg/mL (≈ 400 µM)
Structure (SMILES): OC12COC(c3ccc4c(c3)OCO4)C1COC2c1ccc2c(c1)OCO2 (centres unmarked) [Paulownin]
Degree of Lightness (ΔL) ([2]; Conc. 0.5%): 0.69
Degree of Lightness (ΔL) ([2]; Conc. 1%): 1.52
Degree of Lightness (ΔL) ([2]; Conc. 2%): 2.79
Cytotoxicity potential by MTT assay [3]: did not show any significant cytotoxicity
